The values below are quoted from earlier work in US11807631B2, “Herboxidiene derivatives and uses thereof” (Purdue Research Foundation, priority 2017, dated 2023).

The series deals with human normal fibroblast cell line, W1-38.

As to `COC(C(C)O)C(C)C1OC1(C)CC(C)/C=C/C=C(\C)C1OC(CC(=O)O)CCC1C` (stereo not shown) [Herboxidiene/GEX1A], the cell cycle arrest result is “induces both G1 and G2/M cell cycle arrest”.
